According to patent US20220089589A1, “SMALL MOLECULE DEGRADERS OF FKBP12 VIA RECRUITMENT OF VON HIPPEL-LINDAU E3 UBIQUITIN LIGASE (VHL) E3 UBIQUITIN LIGASE, AND USES IN dTAG SYSTEMS” (DANA-FARBER CANCER INSTITUTE, INC., priority 2019, published 2022):
“Also recorded” adds a separate entry of the source.

How the values were obtained:
Assay type in all cases: cell-based
CDK9 = molecular target: T1, CDK9 (Homo sapiens, UniProt P50750); assay: Immunoblotting of PATU-8902 LACZ-FKBP12^F36V clone, compound 1 and/or THAL-SNS-032 (Example 7), CDK9; details: indicated doses of THAL-SNS-032, 24 hrs, single agent
T1 construct: endogenous in cells; host or cells: PATU-8902 LACZ-FKBP12^F36V clone
Procedure: (§1) PATU-8902 LACZ-FKBP12^F36V clone was plated in 6-well format, allowed to adhere overnight, and treated with DMSO and indicated doses of THAL-SNS-032 and/or 500 nM compound 1 for 24 hrs. Following treatment, cells were lysed in RIPA buffer on ice for 60 minutes. Lysates were clarified by centrifugation at 20,000×g for 10 minutes at 4° C. Immunoblotting was performed to determine changes in protein levels with an Odyssey CLx Imager. The indicated antibodies were employed including HA to monitor LACZ-FKBP12^F36V degradation, CDK9 to monitor CDK9 degradation and α-TUBULIN as a loading control.

pAKT = assay: Immunoblotting of PATU-8902 FKBP12^F36V-KRAS^G12V; KRAS^−/− clone (Example 8), AKT signaling; details: 50 or 500 nM, 4 hrs
Procedure: (§2) PATU-8902 FKBP12^F36V-KRAS^G12V; KRAS^−/− clone was plated in 6-well format, allowed to adhere overnight, and treated with 50 nM and 500 nM dTAG molecules for 4 hrs. Following treatment, cells were lysed in RIPA buffer on ice for 60 minutes. Lysates were clarified by centrifugation at 20,000×g for 10 minutes at 4° C. Immunoblotting was performed to determine changes in protein levels with an Odyssey CLx Imager. The indicated antibodies were employed including HA to monitor FKBP12^F36V-KRAS^G12V degradation, total and phosphorylated ERK to evaluate changes in ERK signaling, total and phosphorylated AKT to evaluate changes in AKT signaling and α-TUBULIN as a loading control.

LACZ-FKBP12^F36V [1] = assay: Immunoblotting of PATU-8902 LACZ-FKBP12^F36V clone, compound 1 and/or THAL-SNS-032 (Example 7), HA; details: 500 nM compound 1, 24 hrs, single agent
Procedure: as §1

FKBP12^F36V-GFP = assay: Immunoblotting of EWS502 FKBP12^F36V-GFP cells; details: dTAG-13 10-5000 nM, compound 1 50-5000 nM, 24 hrs
Procedure: (§3) EWS502 FKBP12^F36V-GFP and FKBP12^F36V-EWS/FLI; EWS/FLP^−/− cells were plated in 6-well format, allowed to adhere overnight, and treated with (10-5000 nM) dTAG-13 or (50-5000 nM) compound 1 for 24 hrs. Following treatment, cells were lysed in Cell Lysis Buffer (Cell Signaling Technology®) on ice for 60 minutes. Lysates were clarified by centrifugation at 20,000×g for 10 minutes at 4° C. Immunoblotting was performed to determine changes in protein levels upon incubation with the appropriate horseradish peroxidase-conjugated secondary antibodies. The indicated antibodies were employed including HA to monitor FKBP12^F36V-GFP or FKBP12^F36V-EWS/FLI degradation and Vinculin as a loading control.

FKBP12^F36V-KRAS^G12V [2] = assay: Immunoblotting of PATU-8902 FKBP12^F36V-KRAS^G12V; KRAS^−/− clone with carfilzomib or MLN4924 pre-treatment (Example 9); details: 500 nM, 4 hrs
Procedure: PATU-8902 FKBP12^F36V-KRAS^G12V; KRAS^−/− clone was plated in 6-well format, allowed to adhere overnight, and treated with DMSO, Carflizomib (CARF) or MLN4924 (MLN) prior to treatment with DMSO or compound 1 for 4 hrs. Following treatment, cells were lysed in RIPA buffer on ice for 60 minutes. Lysates were clarified by centrifugation at 20,000×g for 10 minutes at 4° C. Immunoblotting was performed to determine changes in protein levels with an Odyssey CLx Imager. The indicated antibodies were employed including HA to monitor FKBP12^F36V-KRAS^G12V degradation and α-TUBULIN as a loading control.

FKBP12^F36V-KRAS^G12V [3] = assay: Immunoblotting of PATU-8902 FKBP12^F36V-KRAS^G12V; KRAS^−/− clone (Example 8), HA; details: 50 or 500 nM, 4 hrs
Procedure: as §2

[4] = tested on: PATU-8902 FKBP12^F36V-KRAS^G12V; KRAS^−/− clone; assay: Anti-proliferation via CellTiter-Glo, PATU-8902 FKBP12^F36V-KRAS^G12V; KRAS^−/− clone (Example 12); details: 0.000063-2 μM, 72 hrs
Procedure: (§4) PATU-8902 LACZ-FKBP12^F36V or FKBP12^F36V-KRAS^G12V; KRAS^−/− clones were plated in 384-well format, allowed to adhere overnight, and treated with various dTAG molecules from compound stock plates using a JANUS® Workstation pin tool for 72 hrs. To measure cell viability, Cell Tilter-Glo® was added to wells for 15 minutes at r.t. and luminescence was measured on an EnVision™ 2104 Multilabel Plate Reader.

[5] = tested on: PATU-8902 LACZ-FKBP12^F36V clone; assay: Cell transformation by growth in ultra-low attachment conditions, PATU-8902 LACZ-FKBP12^F36V control clone (Example 13); details: 0.000063-2 μM, 120 hrs
Procedure: as §4, with “format in ultra-low attachment conditions,” for “format,”, “form 3D-spheroids” for “adhere”, “120” for “72”, “transformation,” for “viability,”, “room temperature” for “r.t.”

FKBP12^F36V-KRAS^G12V [6] = assay: Immunoblotting of 293T^WT FKBP12^F36V-KRAS^G12V cells; details: 50 or 500 nM, 24 hrs
Procedure: (§5) 293T^WT or 293T^VHL−/− FKBP12^F36V-KRAS^G12V cells were plated in 6-well format, allowed to adhere overnight, and treated with 50 nM and 500 nM dTAG molecules for 24 hrs. Following treatment, cells were lysed in RIPA buffer on ice for 60 minutes. Lysates were clarified by centrifugation at 20,000×g for 10 minutes at 4° C. Immunoblotting was performed to determine changes in protein levels with an Odyssey CLx Imager. The indicated antibodies were employed including HA to monitor FKBP12^F36V-KRAS^G12V degradation and α-TUBULIN as a loading control.

pERK = assay: Immunoblotting of PATU-8902 FKBP12^F36V-KRAS^G12V; KRAS^−/− clone (Example 8), ERK signaling; details: 50 or 500 nM, 4 hrs
Procedure: as §2

FKBP12^F36V-EWS/FLI = assay: Immunoblotting of EWS502 FKBP12^F36V-EWS/FLI; EWS/FLI^−/− cells; details: dTAG-13 10-5000 nM, compound 1 50-5000 nM, 24 hrs, EWS502 cells
Procedure: as §3

[7] = tested on: PATU-8902 FKBP12^F36V-KRAS^G12V; KRAS^−/− clone; assay: Anti-proliferation via CellTiter-Glo, PATU-8902 FKBP12^F36V-KRAS^G12V; KRAS^−/− clone (Example 11); details: 0.00063-20 μM, 72 hrs
Procedure: as §4, with “CellTilter-Glo®” for “Cell Tilter-Glo®”

[8] = tested on: PATU-8902 LACZ-FKBP12^F36V clone; assay: Anti-proliferation via CellTiter-Glo, PATU-8902 LACZ-FKBP12^F36V control clone (Example 11); details: 0.00063-20 μM, 72 hrs
Procedure: as §4, with “CellTilter-Glo®” for “Cell Tilter-Glo®”

LACZ-FKBP12^F36V [9] = assay: Immunoblotting of PATU-8902 LACZ-FKBP12^F36V clone (Example 6); details: 50 or 500 nM, 4 hrs
Procedure: as §5, with “PATU-8902 LACZ-FKBP12^F36V clone was” for “293T^WT or 293T^VHL−/− FKBP12^F36V-KRAS^G12V cells were”, “4” for “24”, “HA (hemagglutinin)” for “HA”, “LACZ-FKBP12^F36V” for “FKBP12^F36V-KRAS^G12V”

[10] = tested on: PATU-8902 LACZ-FKBP12^F36V clone; assay: Anti-proliferation via CellTiter-Glo, PATU-8902 LACZ-FKBP12^F36V control clone (Example 12); details: 0.000063-2 μM, 72 hrs
Procedure: as §4

FKBP12^F36V-KRAS^G12V [11] = assay: Immunoblotting of 293T^VHL−/− FKBP12^F36V-KRAS^G12V cells; details: 50 or 500 nM, 24 hrs
Procedure: as §5

[12] = tested on: PATU-8902 FKBP12^F36V-KRAS^G12V; KRAS^−/− clone; assay: Cell transformation by growth in ultra-low attachment conditions, PATU-8902 FKBP12^F36V-KRAS^G12V; KRAS^−/− clone (Example 13); details: 0.000063-2 μM, 120 hrs
Procedure: as §4, with “format in ultra-low attachment conditions,” for “format,”, “form 3D-spheroids” for “adhere”, “120” for “72”, “transformation,” for “viability,”, “room temperature” for “r.t.”

Question: How did the “degradation of CDK9 (immunoblot)” value (CDK9) turn out when `CC(C)(C)c1cnc(CSc2cnc(NC(=O)C3CCN(CC(=O)NCCOCCOCCOCCNc4cccc5c4C(=O)N(C4CCC(=O)NC4=O)C5=O)CC3)s2)o1` (stereo not shown) [THAL-SNS-032] was run?
Answer: potent degradation

Question: How did the “pAKT levels (immunoblot)” value (pAKT) turn out when `CC[C@H](C(=O)N1CCCC[C@H]1C(=O)O[C@H](CCc1ccc(OC)c(OC)c1)c1ccccc1OCC(=O)NCCCCCCC(=O)N[C@H](C(=O)N1C[C@H](O)C[C@H]1C(=O)N[C@@H](C)c1ccc(-c2scnc2C)cc1)C(C)(C)C)c1cc(OC)c(OC)c(OC)c1` [Compound 1, (R)-3-(3,4-dimethoxyphenyl)-1-(2-(2-((7-(((S)-1-((2S,4R)-4-hydroxy-2-(((S)-1-(4-(4-methylthiazol-5-yl)phenyl)ethyl)carbamoyl)pyrrolidin-1-yl)-3,3-dimethyl-1-oxobutan-2-yl)amino)-7-oxoheptyl)amino)-2-oxoethoxy)phenyl)propyl (S)-1-((S)-2-(3,4,5-trimethoxyphenyl)butanoyl)piperidine-2-carboxylate] was run?
Answer: pronounced diminished levels

Question: What about the “degradation of LACZ-FKBP12^F36V (immunoblot)” value (LACZ-FKBP12^F36V [1]) of the same compound?
Answer: potent degradation

Question: And the “degradation of FKBP12^F36V-GFP (immunoblot)” value (FKBP12^F36V-GFP)?
Answer: Degradation of GFP (control) is observed; also recorded: potent degradation

Question: What about the “degradation of FKBP12^F36V-KRAS^G12V (immunoblot)” value (FKBP12^F36V-KRAS^G12V [2]; DMSO pre-treatment) of the same compound?
Answer: potent degradation

Question: What about the “degradation of FKBP12^F36V-KRAS^G12V after pre-treatment with Nedd8 activating enzyme inhibitor MLN4924 (MLN)” value (FKBP12^F36V-KRAS^G12V [2]; MLN4924 pre-treatment) of the same compound?
Answer: rescued

Question: And the “degradation of FKBP12^F36V-KRAS^G12V after pre-treatment with proteasome-inhibitor carfilzomib (CARF)” value (FKBP12^F36V-KRAS^G12V [2]; carfilzomib pre-treatment)?
Answer: rescued

Question: What about the “degradation of FKBP12^F36V-KRAS^G12V (immunoblot)” value (FKBP12^F36V-KRAS^G12V [3]) of the same compound?
Answer: potent degradation

Question: And the “anti-proliferative effects / loss of cell viability (% DMSO control)” value [4]?
Answer: Effective loss of viability; also recorded: potent anti-proliferative effects

Question: And the “effects on cell transformation of LACZ-FKBP12^F36V control clone” value [5]?
Answer: limited effects

Question: What about the “degradation of FKBP12^F36V-KRAS^G12V in 293T^WT cells (immunoblot)” value (FKBP12^F36V-KRAS^G12V [6]) of the same compound?
Answer: potent degradation

Question: And the “pERK levels (immunoblot)” value (pERK)?
Answer: pronounced diminished levels

Question: What about the “degradation of FKBP12^F36V-EWS/FLI (immunoblot)” value (FKBP12^F36V-EWS/FLI) of the same compound?
Answer: potent degradation

Question: And the “anti-proliferative effects / loss of cell viability (% DMSO control)” value [7]?
Answer: Effective loss of viability; also recorded: potent anti-proliferative effects

Question: What about the “anti-proliferative effects on LACZ-FKBP12^F36V control clone” value [8] of the same compound?
Answer: limited effects

Question: And the “degradation of LACZ-FKBP12^F36V (immunoblot)” value (LACZ-FKBP12^F36V [9])?
Answer: rapid degradation; also recorded: potent degradation

Question: What about the “anti-proliferative effects on LACZ-FKBP12^F36V control clone” value [10] of the same compound?
Answer: limited effects

Question: What about the “degradation of FKBP12^F36V-KRAS^G12V in 293T^VHL−/− cells (immunoblot)” value (FKBP12^F36V-KRAS^G12V [11]) of the same compound?
Answer: not and did not degrade

Question: And the “loss of cell transformation (3D-spheroids, % DMSO control)” value [12]?
Answer: Effective loss of viability; also recorded: potent loss of cell transformation
